Laboratory results taken from ChEMBL document CHEMBL4376839, “Structure-Based Optimization of Coumarin hA3 Adenosine Receptor Antagonists” (J Med Chem, 2020).

Key:
Adenosine receptor A1 = biological target: T1, Adenosine receptor A1 (Homo sapiens, UniProt P30542); experiment: Displacement of [3H]CCPA from human adenosine receptor A1 expressed in CHO cell membranes by radioligand competition assay
T1 sequence (P30542 whole entry): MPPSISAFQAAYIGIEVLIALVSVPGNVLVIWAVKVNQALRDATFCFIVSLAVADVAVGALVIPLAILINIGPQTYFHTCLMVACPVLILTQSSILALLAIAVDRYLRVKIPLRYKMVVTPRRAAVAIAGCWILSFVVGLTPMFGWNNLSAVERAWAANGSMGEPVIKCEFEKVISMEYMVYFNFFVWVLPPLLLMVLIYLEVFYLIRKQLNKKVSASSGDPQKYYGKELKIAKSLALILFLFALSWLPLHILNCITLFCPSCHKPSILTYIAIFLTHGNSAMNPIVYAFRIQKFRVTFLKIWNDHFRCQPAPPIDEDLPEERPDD

Adenosine receptor A2a = Adenosine receptor A2a (Homo sapiens, UniProt P29274); experiment: Displacement of [3H]NECA from human adenosine receptor A2A expressed in CHO cell membranes by radioligand competition assay
Chain of Adenosine receptor A2a (P29274 whole entry): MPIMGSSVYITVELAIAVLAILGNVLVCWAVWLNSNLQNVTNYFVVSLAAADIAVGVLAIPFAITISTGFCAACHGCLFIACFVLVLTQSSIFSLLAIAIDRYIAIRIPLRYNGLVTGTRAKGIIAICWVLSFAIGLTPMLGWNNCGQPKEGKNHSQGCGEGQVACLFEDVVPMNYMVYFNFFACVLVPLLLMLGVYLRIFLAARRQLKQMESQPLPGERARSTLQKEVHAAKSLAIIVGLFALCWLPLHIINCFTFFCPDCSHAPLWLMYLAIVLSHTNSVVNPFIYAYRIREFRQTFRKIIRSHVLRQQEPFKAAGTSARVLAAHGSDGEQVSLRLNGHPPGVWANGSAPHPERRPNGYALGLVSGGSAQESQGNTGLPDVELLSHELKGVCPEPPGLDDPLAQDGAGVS

Adenosine receptor A3 [1] = biological target: T2, Adenosine receptor A3 (Homo sapiens, UniProt P0DMS8); experiment: Displacement of [3H]HEMADO from human adenosine receptor A3 expressed in CHO cell membranes by radioligand competition assay
T2 sequence (P0DMS8 whole entry): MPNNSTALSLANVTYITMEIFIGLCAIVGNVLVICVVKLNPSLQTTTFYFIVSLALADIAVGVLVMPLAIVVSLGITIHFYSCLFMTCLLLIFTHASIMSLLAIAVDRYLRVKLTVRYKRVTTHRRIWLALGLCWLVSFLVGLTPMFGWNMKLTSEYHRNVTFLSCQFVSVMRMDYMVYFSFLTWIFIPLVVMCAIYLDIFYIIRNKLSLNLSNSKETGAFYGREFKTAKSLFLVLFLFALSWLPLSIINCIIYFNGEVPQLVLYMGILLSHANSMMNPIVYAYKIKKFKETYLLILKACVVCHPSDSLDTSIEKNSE

Adenosine receptor A2b [2] = biological target: T3, Adenosine receptor A2b (Homo sapiens, UniProt P29275); experiment: Antagonist activity at human adenosine receptor A2B expressed in CHO cells assessed as inhibition of NECA-stimulated adenylyl cyclase activity
T3 sequence (P29275 whole entry): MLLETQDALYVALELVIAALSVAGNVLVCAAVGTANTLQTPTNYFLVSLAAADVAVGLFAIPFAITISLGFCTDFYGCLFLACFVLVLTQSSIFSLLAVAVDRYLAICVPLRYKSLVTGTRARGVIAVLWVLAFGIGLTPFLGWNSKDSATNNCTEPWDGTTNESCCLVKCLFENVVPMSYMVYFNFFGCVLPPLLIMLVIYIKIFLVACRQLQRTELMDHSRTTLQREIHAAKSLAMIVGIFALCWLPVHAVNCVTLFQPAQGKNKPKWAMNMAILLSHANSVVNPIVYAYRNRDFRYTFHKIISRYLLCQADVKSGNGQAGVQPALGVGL

Adenosine receptor A2b [3] = biological target: T3, Adenosine receptor A2b; experiment: as above; remark: listed apart in the source
Adenosine receptor A3 [4] = biological target: T2, Adenosine receptor A3; experiment: Antagonist activity at human adenosine receptor A3 expressed in CHO cells assessed as suppression of NECA-induced decrease of cAMP accumulation by Glo-sensor cAMP assay; assay type: functional, cell-based

Row | Structure (SMILES) | Ki (Adenosine receptor A1) [µM] | Ki (Adenosine receptor A2a) [µM] | Ki (Adenosine receptor A3 [1]) [µM] | IC50 (Adenosine receptor A2b [2]) [µM] | Ki (Adenosine receptor A2b [3]) [µM] | IC50 (Adenosine receptor A3 [4]) [µM]
1 | Cc1cccc2cc(-c3ccccc3)c(=O)oc12 | 14.8 | 42.1 | 17 | > 30 | > 30 | 
2 | CCOc1cccc2cc(-c3ccc(OC)cc3OC)c(=O)oc12 | > 100 | > 100 | 16.6 | > 30 | > 30 | 
3 | O=c1oc2c(O)c(O)ccc2cc1-c1ccc(O)c(O)c1 | 6.28 | 25.5 | 8.5 | > 30 | > 30 | 
4 | Cc1cccc2cc(-c3ccc([N+](=O)[O-])cc3)c(=O)oc12 | > 100 | > 100 | > 100 | > 30 | > 30 | 
5 | CCOc1cccc2cc(-c3ccc(OC)cc3)c(=O)oc12 | > 100 | > 100 | 5.32 | > 30 | > 30 | 29.5
6 | COc1ccc(-c2cc3cccc(C)c3oc2=O)cc1OC | > 100 | 25.9 | 13.6 | > 30 | > 30 | 
7 | Cc1ccc(-c2cc3cccc(C)c3oc2=O)cc1 | > 100 | > 100 | 16.6 | > 30 | > 30 | 
8 | CCOc1cccc2cc(-c3ccc(C)cc3)c(=O)oc12 | > 100 | > 60 | 3.93 | > 30 | > 30 | 18.4
9 | Cc1cccc2cc(-c3cc(O)c(O)c(O)c3)c(=O)oc12 | 14.7 | > 100 | 14.3 | > 30 | > 30 | 
10 | O=c1oc2c(O)c(O)ccc2cc1-c1ccc(O)cc1 | 12.5 | 55.3 | 9.16 | > 30 | > 30 | 
11 | CC(=O)Oc1cccc2cc(-c3ccccc3)c(=O)oc12 | 6.93 | 35.7 | 6.86 | > 30 | > 30 | 
12 | CCOc1cccc2cc(-c3cc(OC)c(OC)c(OC)c3)c(=O)oc12 | > 100 | > 100 | 9.05 | > 30 | > 30 | 
13 | CCOc1cccc2cc(-c3ccc(OC)c(OC)c3)c(=O)oc12 | > 100 | > 100 | 13.7 | > 30 | > 30 | 
14 | O=c1oc2c(O)cccc2cc1-c1ccc(Br)cc1 | > 100 | > 100 |  | > 30 | > 30 | 

Next, values leading:

Row | Ki (Adenosine receptor A1) [µM] | Ki (Adenosine receptor A2a) [µM] | Ki (Adenosine receptor A3 [1]) [µM] | IC50 (Adenosine receptor A2b [2]) [µM] | Ki (Adenosine receptor A2b [3]) [µM] | IC50 (Adenosine receptor A3 [4]) [µM] | Structure (SMILES)
15 | > 100 | 59.1 | 8.02 | > 30 | > 30 |  | COc1cccc2cc(-c3ccc([N+](=O)[O-])cc3)c(=O)oc12
16 | > 100 | > 100 | > 100 | > 30 | > 30 |  | CCOc1cccc2cc(-c3ccc(Br)cc3)c(=O)oc12
17 | > 100 | 64.4 | 22 | > 30 | > 30 |  | CC(=O)Oc1ccc(-c2cc3cccc(OC(C)=O)c3oc2=O)cc1OC(C)=O
18 | > 60 | 32.9 | 9.82 | > 30 | > 30 |  | COc1cc(-c2cc3cccc(C)c3oc2=O)cc(OC)c1OC
19 | > 100 | > 100 | > 30 |  | > 30 |  | CC(=O)COc1cccc2cc(-c3ccc(Br)cc3)c(=O)oc12
20 | 10.4 | 16.1 | 7.06 |  | > 30 |  | CC(=O)COc1cccc2cc(-c3ccccc3)c(=O)oc12
21 | 22.1 | 55 | 22.5 | > 30 | > 30 |  | CCOc1cccc2cc(-c3ccccc3)c(=O)oc12
22 | 8.56 | 21.1 | 5.17 | > 30 | > 30 |  | CC(=O)Oc1ccc2cc(-c3ccccc3)c(=O)oc2c1OC(C)=O
23 | > 100 | > 100 | > 100 | > 30 | > 30 |  | CCOc1cccc2cc(-c3ccc([N+](=O)[O-])cc3)c(=O)oc12
24 | 6.2 | 14 | 23.6 | > 30 | > 30 |  | O=c1oc2c(O)cccc2cc1-c1ccc(O)c(O)c1
25 | 4.62 | 42.3 | 5.09 | > 30 | > 30 |  | O=c1oc2c(O)cccc2cc1-c1ccccc1
26 | 2.4 | 12.1 | 3.85 | > 30 | > 30 |  | O=c1oc2c(O)c(O)ccc2cc1-c1ccccc1
27 | > 100 | > 100 | 0.634 |  | > 30 |  | CC(=O)COc1cccc2cc(-c3ccc(C)cc3)c(=O)oc12
28 | > 100 | > 100 | 23.4 | > 30 | > 30 |  | CC(=O)Oc1ccc(-c2cc3ccc(OC(C)=O)c(OC(C)=O)c3oc2=O)cc1OC(C)=O
29 | > 100 | > 100 | 5.06 | > 30 | > 30 | 25.3 | COc1ccc(-c2cc3cccc(OC)c3oc2=O)cc1
30 | > 100 | > 100 | 6.14 | > 30 | > 30 |  | CC(=O)Oc1ccc(-c2cc3ccc(OC(C)=O)c(OC(C)=O)c3oc2=O)cc1
